# Reference: PMC12115184, “Metformin-Induced Apoptosis Is Mediated Through Mitochondrial VDAC1” (Pharmaceuticals, 2025)
# Target: T1, VDAC1 (Rattus norvegicus, UniProt Q9Z2L0)
# T1 construct: VDAC1 purified from rat liver mitochondria (channel conductance)
# Test: planar lipid bilayer conductance of reconstituted purified VDAC1; MST with N-terminal peptide
# Type: biochemical
# T1 sequence (Q9Z2L0 2-283): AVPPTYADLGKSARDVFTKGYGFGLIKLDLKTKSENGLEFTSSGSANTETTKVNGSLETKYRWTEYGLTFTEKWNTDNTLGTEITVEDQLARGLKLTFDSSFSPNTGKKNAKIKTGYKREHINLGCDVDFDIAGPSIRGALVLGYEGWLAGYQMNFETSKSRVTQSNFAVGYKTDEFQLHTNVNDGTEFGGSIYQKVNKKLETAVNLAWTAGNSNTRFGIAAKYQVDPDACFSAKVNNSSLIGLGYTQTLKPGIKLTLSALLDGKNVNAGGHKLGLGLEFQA
structure (smiles),measurement,value
"CN(C)C(=N)N=C(N)N [metformin, 3-(diaminomethylidene)-1,1-dimethylguanidine]",planar lipid bilayer conductance of reconstituted purified VDAC1; MST with N-ter,Metformin reduced VDAC1 conductance only after the channel was exposed to a high voltage step.
